This passage reports inhibition and melting point results from PMC8330742, “New benzothieno[2,3-c]pyridines as non-steroidal CYP17 inhibitors: design, synthesis, anticancer screening, apoptosis induction, and in silico ADME profile studies” (Journal of Enzyme Inhibition and Medicinal Chemistry, 2021).

Like-named read-outs stand apart in the source and are kept apart here.

As usually defined, the inhibition is the drop in the measured response relative to a control, in per cent. For orientation: melting point means the temperature of the solid-liquid transition.

One data set has as its system RPMI-8226. Briefly: NCI-60 SRB screen. The data set is classed as cell-based. The conditions noted are these: Homo sapiens, single dose 10^−5 M, read-out: Growth inhibition (%).
The subject of the next data set is OVCAR-5. Briefly: NCI-60 SRB screen. The format is cell-based, human. The conditions noted are these: Homo sapiens, single dose 10^−5 M, read-out: Growth inhibition (%).
The subject of a further data set is OVCAR-8. Briefly: NCI-60 SRB screen. As to conditions: Homo sapiens, single dose 10^−5 M, read-out: Growth inhibition (%). The data set is classed as cell-based, human.
Another data set has as its system A498. Briefly: NCI-60 SRB screen. The data set is classed as cell-based, human. The conditions noted are these: Homo sapiens, single dose 10^−5 M, read-out: Growth inhibition (%).
A further data set deals with PC-3. Briefly: NCI-60 SRB screen. The format is cell-based, human. As to conditions: Homo sapiens, single dose 10^−5 M, read-out: Growth inhibition (%).
A further data set concerns DU-145. Briefly: NCI-60 SRB screen. The data set is classed as cell-based, human. As to conditions: Homo sapiens, single dose 10^−5 M, read-out: Growth inhibition (%).
A further data set concerns MCF7. Briefly: NCI-60 SRB screen. The format is cell-based, human. The conditions noted are these: Homo sapiens, read-out: Growth inhibition (%).
Another data set deals with MDA-MB-231/ATCC. Briefly: NCI-60 SRB screen. The format is cell-based, human. The conditions noted are these: Homo sapiens, single dose 10^−5 M, read-out: Growth inhibition (%).
The test system of the next data set is BT-549. Briefly: NCI-60 SRB screen. The data set is classed as cell-based, human. The conditions noted are these: Homo sapiens, single dose 10^−5 M, read-out: Growth inhibition (%).
The subject of the next data set is T-47D. Briefly: NCI-60 SRB screen. The data set is classed as cell-based, human. The conditions noted are these: Homo sapiens, T47D, single dose 10^−5 M, read-out: Growth inhibition (%).
In a further data set the test system is MDA-MB-468. Briefly: NCI-60 SRB screen. The data set is classed as cell-based, human. As to conditions: Homo sapiens, single dose 10^−5 M, read-out: Growth inhibition (%).
For a further data set, the system named is SF-539. Briefly: NCI-60 SRB screen. The format is cell-based, human. As to conditions: Homo sapiens; single dose 10^−5 M; SF-539, CNS cancer; read-out: Growth inhibition (%).
Another data set relates to SNB-19. Briefly: NCI-60 SRB screen. The format is cell-based. The conditions noted are these: Homo sapiens; single dose 10^−5 M; SNB-19, CNS cancer; read-out: Growth inhibition (%).
The next data set relates to SNB-75. Briefly: NCI-60 SRB screen. The format is cell-based, human. The conditions noted are these: Homo sapiens; single dose 10^−5 M; SNB-75, CNS cancer; read-out: Growth inhibition (%).
Another data set deals with U251. Briefly: NCI-60 SRB screen. The conditions noted are these: Homo sapiens, U-251; single dose 10^−5 M; U251, CNS cancer; read-out: Growth inhibition (%). The data set is classed as cell-based, human.
[1] abbreviates: single dose 10^−5 M, MCF-7, Breast cancer.

For `O=C1NC(c2cccc([N+](=O)[O-])c2)c2sc3c(F)cccc3c2C1Cl` (centres unmarked) [Compound 4d, 4-Chloro-8-fluoro-1-(3-nitrophenyl)-1,2-dihydro[1]benzothieno[2,3-c] pyridine-3(4H)-one], the melting point fell in the range of 160 to 162 °C. Moreover, in the data set with RPMI-8226 (RPMI-8226), the inhibition at 10 µM worked out at 9.61%. Besides, the inhibition at 10 µM in the data set with OVCAR-5 (OVCAR-5) is -3.92%. The inhibition at 10 µM with OVCAR-8 (OVCAR-8) was -1.82%. Besides, the inhibition at 10 µM with A498 (A498) is -0.03%. Moreover, the inhibition at 10 µM in the data set with PC-3 (PC-3) worked out at 3.8%. Further, the inhibition at 10 µM in the data set on DU-145 (DU-145) is -8.57%. For the same compound, the inhibition at 10 µM in the data set on MCF7 (MCF-7, single dose 10^−5 M) was 8.44%. Moreover, the inhibition at 10 µM with MDA-MB-231/ATCC (MDA-MB-231, MDAMB231/ATCC) is 5.22%. Further, the inhibition at 10 µM with BT-549 (BT-549) came to 3.62%. The inhibition at 10 µM in the data set with T-47D worked out at 8.7%. In the data set with MDA-MB-468 (MDA-MB-468), the inhibition at 10 µM is -8.27%.
`N#CC1C(=O)NC(c2cccc([N+](=O)[O-])c2)c2sc3c(F)cccc3c21` (centres unmarked) [Compound 5d, 4-Cyano-8-fluoro-1-(3-nitrophenyl)-1,2-dihydro[1]benzothieno[2,3-c] pyridin-3(4H)-one] yielded a melting point of 180 to 182 °C. Also, the inhibition at 10 µM with RPMI-8226 (RPMI-8226) turned out to be 14%. Moreover, the inhibition at 10 µM in the data set on OVCAR-5 (OVCAR-5) was 1.54%. In addition, in the data set on OVCAR-8 (OVCAR-8), the inhibition at 10 µM was 5.37%. Besides, the inhibition at 10 µM in the data set on A498 (A498) came out at 17.3%. For the same compound, the inhibition at 10 µM with PC-3 (PC-3) worked out at 13.2%. The inhibition at 10 µM in the data set on DU-145 (DU-145) was -10%. The inhibition at 10 µM in the data set with MCF7 (MCF-7, single dose 10^−5 M) amounted to 15.1%. Also, the inhibition at 10 µM in the data set on MDA-MB-231/ATCC (MDA-MB-231, MDAMB231/ATCC) was found to be 19.2%. Further, the inhibition at 10 µM in the data set with BT-549 (BT-549) turned out to be 8.35%. For the same compound, the inhibition at 10 µM in the data set on T-47D worked out at 20.1%. Moreover, in the data set with MDA-MB-468 (MDA-MB-468), the inhibition at 10 µM was -6.48%.
The compound `CCN1CCN(C2C(=O)NC(c3cccc([N+](=O)[O-])c3)c3sc4c(F)cccc4c32)CC1` (centres unmarked) [Compound 6a, 4-(4-Ethylpiperazin-1-yl)-8-fluoro-1-(3-nitrophenyl)-1,2-dihydro[1]benzo thieno[2,3-c]pyridin-3(4H)-one] yielded a melting point of 240 to 241 °C. Also, in the data set with RPMI-8226 (RPMI-8226), the inhibition at 10 µM amounted to 4.93%. In the data set on OVCAR-5 (OVCAR-5), the inhibition at 10 µM was -3.55%. Further, the inhibition at 10 µM in the data set with OVCAR-8 (OVCAR-8) is 2.02%. For the same compound, in the data set on A498 (A498), the inhibition at 10 µM was found to be 0.35%. For the same compound, the inhibition at 10 µM in the data set on PC-3 (PC-3) came to 9.37%. Also, the inhibition at 10 µM in the data set on DU-145 (DU-145) was -10.8%. Further, the inhibition at 10 µM in the data set with MCF7 (MCF-7, single dose 10^−5 M) worked out at 0.6%. Moreover, in the data set on MDA-MB-231/ATCC (MDA-MB-231, MDAMB231/ATCC), the inhibition at 10 µM is -0.79%. Further, the inhibition at 10 µM with BT-549 (BT-549) was -0.58%. The inhibition at 10 µM in the data set with T-47D was -1.25%. For the same compound, the inhibition at 10 µM in the data set with MDA-MB-468 (MDA-MB-468) is -7.69%.
`O=C1NC(c2cccc([N+](=O)[O-])c2)c2sc3c(F)cccc3c2C1N1CCCCC1` (centres unmarked) [Compound 6c, 8-Fluoro-1-(3-nitrophenyl)-4-(piperidin-1-yl)-1,2-dihydro[1]benzothieno [2,3-c]pyridin-3(4H)-one]: the inhibition at 10 µM in the data set on RPMI-8226 (RPMI-8226) was 5.15%; in the data set with OVCAR-5 (OVCAR-5), -1.56%; with OVCAR-8 (OVCAR-8), 5%; in the data set with A498 (A498), 7.34%; with PC-3 (PC-3) it was 8.67%; with DU-145 (DU-145), -9.9%. For the same compound, the inhibition at 10 µM with MCF7 (MCF-7, single dose 10^−5 M) is 10.2%; with MDA-MB-231/ATCC (MDA-MB-231, MDAMB231/ATCC), 0.28%; in the data set on BT-549 (BT-549) it was 1.61%; in the data set on T-47D, 8.12%; in the data set with MDA-MB-468 (MDA-MB-468), -9.31%.
For `CCN1CCN(C2=C(Cl)c3c(sc4c(F)cccc34)C(c3cccc([N+](=O)[O-])c3)N2)CC1` (centres unmarked) [Compound 8a, 4-Chloro-3–(4-ethylpiperzin-1-yl)-8-fluoro-1-(3-nitrophenyl)-1,2-dihydro [1]benzothieno[2,3-c]pyridine], the inhibition at 10 µM amounted to 15.4% in the data set with RPMI-8226 (RPMI-8226, Leukaemia); 4.31% in the data set with SF-539; 1.26% in the data set with SNB-19; 11.8% with SNB-75; 6.16% with U251; 1.9% in the data set with OVCAR-5 (OVCAR-5, Ovarian cancer). Also, the inhibition at 10 µM in the data set with OVCAR-8 (OVCAR-8, Ovarian cancer) was 2.09%; in the data set on A498 (A498, Renal cancer), 0.93%; in the data set with PC-3 (PC-3, Prostate cancer), 7.7%; in the data set on DU-145 (DU-145, Prostate cancer), -7.24%; in the data set on MCF7 (setting [1]) it was 4.08%; in the data set on MDA-MB-231/ATCC (MDA-MB 231/ATCC, Breast cancer) it was 12%. For the same compound, the inhibition at 10 µM in the data set with BT-549 (BT-549, Breast cancer) is 9.38%; with T-47D (Breast cancer) it was 11.1%; with MDA-MB-468 (MDA-MB-468, Breast cancer), -9.64%.
In the case of `CCN1CCN(C2=C(C#N)c3c(sc4c(F)cccc34)C(c3cccc([N+](=O)[O-])c3)N2)CC1` (centres unmarked) [Compound 8d, 4-Cyano-3-(4-ethylpiperazin-1-yl)-8-fluoro-1-(3-nitrophenyl)-1,2-dihydro [1]benzothieno[2,3-c]pyridine], the inhibition at 10 µM in the data set on RPMI-8226 (RPMI-8226, Leukaemia) was 1.72%; with SF-539, 6.11%; with SNB-19 it was -1.27%; in the data set with SNB-75, 8.49%; in the data set with U251 it was 0.9%; in the data set with OVCAR-5 (OVCAR-5, Ovarian cancer) it was -4.1%. Also, the inhibition at 10 µM in the data set with OVCAR-8 (OVCAR-8, Ovarian cancer) is -1.56%; in the data set with A498 (A498, Renal cancer) it was 12.1%; in the data set with PC-3 (PC-3, Prostate cancer), 9.1%; in the data set with DU-145 (DU-145, Prostate cancer), -11.2%; in the data set with MCF7 (setting [1]), 9.44%; in the data set with MDA-MB-231/ATCC (MDA-MB 231/ATCC, Breast cancer), 19.8%. For the same compound, the inhibition at 10 µM in the data set on BT-549 (BT-549, Breast cancer) is 1.51%; in the data set with T-47D (Breast cancer), 22.3%; in the data set with MDA-MB-468 (MDA-MB-468, Breast cancer) it was -2.69%.
In the case of `N#CC1=C(N2CCOCC2)NC(c2cccc([N+](=O)[O-])c2)c2sc3c(F)cccc3c21` (centres unmarked) [Compound 8e, 4-Cyano-3-(4-morpholino)-8-fluoro-1-(3-nitrophenyl)-1,2-dihydro [1]benzothieno[2,3-c]pyridine], the inhibition at 10 µM in the data set on RPMI-8226 (RPMI-8226, Leukaemia) was 6.66%; with SF-539, 3.33%; in the data set with SNB-19 it was -0.92%; in the data set on SNB-75, 7.28%; in the data set with U251, -2.2%; in the data set with OVCAR-5 (OVCAR-5, Ovarian cancer), 0.99%. Moreover, the inhibition at 10 µM in the data set with OVCAR-8 (OVCAR-8, Ovarian cancer) was 4.28%; with A498 (A498, Renal cancer) it was 3.17%; with PC-3 (PC-3, Prostate cancer), 12.3%; in the data set with DU-145 (DU-145, Prostate cancer) it was -12.3%; with MCF7 (setting [1]), -1.68%; in the data set on MDA-MB-231/ATCC (MDA-MB 231/ATCC, Breast cancer) it was 13.4%. In addition, the inhibition at 10 µM is 1.14% with BT-549 (BT-549, Breast cancer); -4.79% in the data set on T-47D (Breast cancer); -11% in the data set with MDA-MB-468 (MDA-MB-468, Breast cancer).
Take `N#CC1=C(Nc2ccccc2F)NC(c2cccc([N+](=O)[O-])c2)c2sc3c(F)cccc3c21` (centres unmarked) [Compound 10, 4-Cyano-8-fluoro-3((2-fluorophenyl)amino)-1–(3-nitrophenyl)-1,2-dihydro[1]benzothieno[2,3-c]pyridine]: the inhibition at 10 µM in the data set with RPMI-8226 (RPMI-8226, Leukaemia) is 1.46%; in the data set on SF-539, 6.04%; in the data set on SNB-19, -3.45%; in the data set with SNB-75, 10.1%; in the data set with U251 it was -9.9%; in the data set with OVCAR-5 (OVCAR-5, Ovarian cancer), -3.49%. The inhibition at 10 µM in the data set on OVCAR-8 (OVCAR-8, Ovarian cancer) was -6.58%; in the data set with A498 (A498, Renal cancer), 3.94%; with PC-3 (PC-3, Prostate cancer) it was 7.8%; in the data set with DU-145 (DU-145, Prostate cancer) it was -8.61%; in the data set on MCF7 (setting [1]), 4.92%; in the data set on MDA-MB-231/ATCC (MDA-MB 231/ATCC, Breast cancer), 17.4%. Moreover, the inhibition at 10 µM is 1.04% in the data set on BT-549 (BT-549, Breast cancer); -2.94% in the data set with T-47D (Breast cancer); -7.35% in the data set with MDA-MB-468 (MDA-MB-468, Breast cancer).
